The results in this text go back to the supplement of paper PMC10307832.

Experiment in all cases: relative viability (nuclei count vs DMSO), 5 days (fraction); higher = more cells survive
Compound in the assay “GSK-J4 + Phenformin”: CCOC(=O)CCNc1cc(N2CCc3ccccc3CC2)nc(-c2ccccn2)n1 [GSK-J4] + N=C(N)NC(=N)NCCc1ccccc1 [Phenformin] (partner 250 µM)
The method, boiled down:
(§1)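 One day after seeding in 1536-well plates, lung cancer cell lines were dosed by pin tool. Dosing was either single-drug or a fixed anchor-drug dose plus five library-drug doses (not always all listed) in √10 steps. After 5 days, nuclei were stained in one fix-and-stain step and counted on 4× images, and relative viability is the nuclei count of treated wells over that of vehicle wells, given as the median of duplicate plates.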

Compound in the assay “GSK-J4 + Alpelisib”: CCOC(=O)CCNc1cc(N2CCc3ccccc3CC2)nc(-c2ccccn2)n1 [GSK-J4] + Cc1nc(NC(=O)N2CCC[C@H]2C(N)=O)sc1-c1ccnc(C(C)(C)C(F)(F)F)c1 [Alpelisib] (partner 2 µM)
The method, boiled down: as §1

Compound in the assay “GSK-J4 + Luminespib”: CCOC(=O)CCNc1cc(N2CCc3ccccc3CC2)nc(-c2ccccn2)n1 [GSK-J4] + CCNC(=O)c1noc(-c2cc(C(C)C)c(O)cc2O)c1-c1ccc(CN2CCOCC2)cc1 [Luminespib] (partner 0.01 µM)
The method, boiled down:
as §1

Compound in the assay “GSK-J4 + Palbociclib”: CCOC(=O)CCNc1cc(N2CCc3ccccc3CC2)nc(-c2ccccn2)n1 [GSK-J4] + CC(=O)c1c(C)c2cnc(Nc3ccc(N4CCNCC4)cn3)nc2n(C2CCCC2)c1=O [Palbociclib] (partner 0.5 µM)
The method, boiled down: as §1

Regarding UMC-11, the relative viability in the assay with GSK-J4 + Phenformin (first compound 0.5 µM) came out at 0.276; with GSK-J4 + Phenformin (first compound 5 µM), 0.241; with GSK-J4 + Phenformin (first compound 15.81 µM), 0.306; in the assay with GSK-J4 + Phenformin (first compound 50 µM), 0.294; with GSK-J4 + Alpelisib (first compound 0.5 µM) it was 0.932; in the assay with GSK-J4 + Alpelisib (first compound 1.581 µM), 0.856. For the same cell line, the relative viability with GSK-J4 + Alpelisib (first compound 5 µM) came out at 1.06; with GSK-J4 + Alpelisib (first compound 15.81 µM) it was 0.938; with GSK-J4 + Alpelisib (first compound 50 µM), 0.607; with GSK-J4 + Luminespib (first compound 0.5 µM), 0.996; with GSK-J4 + Luminespib (first compound 5 µM), 1.03; in the assay with GSK-J4 + Luminespib (first compound 15.81 µM) it was 0.971. The relative viability turned out to be 0.259 with GSK-J4 + Luminespib (first compound 50 µM); 0.367 with GSK-J4 + Palbociclib (first compound 0.5 µM); 0.288 with GSK-J4 + Palbociclib (first compound 1.581 µM); 0.35 with GSK-J4 + Palbociclib (first compound 15.81 µM); 0.241 with GSK-J4 + Palbociclib (first compound 50 µM).
